Measured values as given in patent US7138361B2, “Herbicidal heterocycles” (E. I. du Pont de Nemours and Company, priority 2000, dated 2006).

How the values were obtained:
Assay in all cases: Test C postemergence
Assay type in all cases: in vivo
[1] = tested on: bermudagrass (Cynodon dactylon)
Outline: (§1)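 Plants held in greenhouse for 12–14 days post-application are scored by eye against controls on a 0–100 control scale. Application timing: preemergence on sown seed, or postemergence on 2–18 cm plants.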

[2] = tested on: corn (Zea mays)
Outline: as §1

[3] = tested on: velvetleaf (Abutilon theophrasti)
Outline: as §1

[4] = tested on: giant foxtail (Setaria faberii)
Outline: as §1

[5] = tested on: goosegrass (Eleusine indica)
Outline: as §1

[6] = tested on: pigweed (Amaranthus retroflexus)
Outline: as §1

[7] = tested on: lambsquarters (Chenopodium album)
Outline: as §1

[8] = tested on: crabgrass (Digitaria sanguinalis)
Outline: as §1

[9] = tested on: johnsongrass (Sorghum halepense)
Outline: as §1

[10] = tested on: yellow nutsedge (Cyperus esculentus)
Outline: as §1

[11] = tested on: soybean (Glycine max)
Outline: as §1

[12] = tested on: kochia (Kochia scoparia)
Outline: as §1

[13] = tested on: Surinam grass (Brachiaria decumbens)
Outline: as §1

[14] = tested on: chickweed (Stellaria media)
Outline: as §1

[15] = tested on: cocklebur (Xanthium strumarium)
Outline: as §1

[16] = tested on: woolly cupgrass (Eriochloa villosa)
Outline: as §1

[17] = tested on: common ragweed (Ambrosia elatior)
Outline: as §1

[18] = Rate 62 g/ha, scale 0 to 100, 0 no effect, 100 complete control
[19] = Rate 125 g/ha, scale 0 to 100, 0 no effect, 100 complete control
[20] = Rate 250 g/ha, scale 0 to 100 (0 no effect, 100 complete control)

CC(C)(C)c1ccn(C2SCN(c3cccc(OC(F)F)c3)C2=O)n1 (centres unmarked) [Compound 36]
Plant response rating, Bermudagrass ([1]; Rate 31 g/ha, scale 0 to 100): 0
Plant response rating, Bermudagrass [1, 18]: 0
Plant response rating, Bermudagrass [1, 19]: 0
Plant response rating, Bermudagrass [1, 20]: 70
Plant response rating, Corn ([2]; Rate 31 g/ha, scale 0 to 100): 0
Plant response rating, Corn [2, 19]: 0
Plant response rating, Corn [2, 20]: 20
Plant response rating, Velvetleaf ([3]; Rate 31 g/ha, scale 0 to 100): 0
Plant response rating, Velvetleaf [3, 19]: 0
Plant response rating, Velvetleaf [3, 20]: 30
Plant response rating, Foxtail, Giant ([4]; Rate 31 g/ha, scale 0 to 100): 0
Plant response rating, Foxtail, Giant [4, 19]: 0
Plant response rating, Foxtail, Giant [4, 20]: 20
Plant response rating, Goosegrass ([5]; Rate 31 g/ha, scale 0 to 100): 0
Plant response rating, Goosegrass [5, 19]: 0
Plant response rating, Goosegrass [5, 20]: 0
Plant response rating, Pigweed ([6]; Rate 31 g/ha, scale 0 to 100): 30
Plant response rating, Pigweed [6, 19]: 60
Plant response rating, Pigweed [6, 20]: 60
Plant response rating, Lambsquarters ([7]; Rate 31 g/ha, scale 0 to 100): 50
Plant response rating, Lambsquarters [7, 19]: 70
Plant response rating, Lambsquarters [7, 20]: 70
Plant response rating, Crabgrass ([8]; Rate 31 g/ha, scale 0 to 100): 0
Plant response rating, Crabgrass [8, 19]: 0
Plant response rating, Crabgrass [8, 20]: 30
Plant response rating, Johnsongrass ([9]; Rate 31 g/ha, scale 0 to 100): 0
Plant response rating, Johnsongrass [9, 19]: 0
Plant response rating, Johnsongrass [9, 20]: 0
Plant response rating, Nutsedge ([10]; Rate 31 g/ha, scale 0 to 100): 0
Plant response rating, Nutsedge [10, 19]: 0
Plant response rating, Nutsedge [10, 20]: 30
Plant response rating, Soybean ([11]; Rate 31 g/ha, scale 0 to 100): 0
Plant response rating, Soybean [11, 19]: 0
Plant response rating, Soybean [11, 20]: 0
Plant response rating, Kochia ([12]; Rate 31 g/ha, scale 0 to 100): 20
Plant response rating, Kochia [12, 19]: 70
Plant response rating, Kochia [12, 20]: 80
Plant response rating, Surinam grass ([13]; Rate 31 g/ha, scale 0 to 100): 0
Plant response rating, Surinam grass [13, 18]: 0
Plant response rating, Surinam grass [13, 19]: 0
Plant response rating, Surinam grass [13, 20]: 0
Plant response rating, Chickweed ([14]; Rate 31 g/ha, scale 0 to 100): 0
Plant response rating, Chickweed [14, 18]: 0
Plant response rating, Chickweed [14, 19]: 0
Plant response rating, Chickweed [14, 20]: 50
Plant response rating, Cocklebur ([15]; Rate 31 g/ha, scale 0 to 100): 0
Plant response rating, Cocklebur [15, 19]: 0
Plant response rating, Cocklebur [15, 20]: 0
Plant response rating, Cupgrass, Woolly ([16]; Rate 31 g/ha, scale 0 to 100): 0
Plant response rating, Cupgrass, Woolly [16, 19]: 0
Plant response rating, Cupgrass, Woolly [16, 20]: 0
Plant response rating, Ragweed, Common ([17]; Rate 31 g/ha, scale 0 to 100): 0
Plant response rating, Ragweed, Common [17, 19]: 0
Plant response rating, Ragweed, Common [17, 20]: 30

O=C1C(n2ccc(C3CCC3)n2)SCN1c1cccc(C(F)(F)F)c1 (centres unmarked) [Compound 37]
Plant response rating, Bermudagrass ([1]; Rate 31 g/ha, scale 0 to 100): 0
Plant response rating, Bermudagrass [1, 18]: 0
Plant response rating, Bermudagrass [1, 19]: 0
Plant response rating, Bermudagrass [1, 20]: 0
Plant response rating, Corn ([2]; Rate 31 g/ha, scale 0 to 100): 0
Plant response rating, Corn [2, 19]: 0
Plant response rating, Corn [2, 20]: 0
Plant response rating, Velvetleaf ([3]; Rate 31 g/ha, scale 0 to 100): 0
Plant response rating, Velvetleaf [3, 19]: 0
Plant response rating, Velvetleaf [3, 20]: 0
Plant response rating, Foxtail, Giant ([4]; Rate 31 g/ha, scale 0 to 100): 0
Plant response rating, Foxtail, Giant [4, 19]: 0
Plant response rating, Foxtail, Giant [4, 20]: 0
Plant response rating, Goosegrass ([5]; Rate 31 g/ha, scale 0 to 100): 0
Plant response rating, Goosegrass [5, 19]: 0
Plant response rating, Goosegrass [5, 20]: 0
Plant response rating, Pigweed ([6]; Rate 31 g/ha, scale 0 to 100): 0
Plant response rating, Pigweed [6, 19]: 0
Plant response rating, Pigweed [6, 20]: 0
Plant response rating, Lambsquarters ([7]; Rate 31 g/ha, scale 0 to 100): 20
Plant response rating, Lambsquarters [7, 19]: 20
Plant response rating, Lambsquarters [7, 20]: 50
Plant response rating, Crabgrass ([8]; Rate 31 g/ha, scale 0 to 100): 0
Plant response rating, Crabgrass [8, 19]: 0
Plant response rating, Crabgrass [8, 20]: 0
Plant response rating, Johnsongrass ([9]; Rate 31 g/ha, scale 0 to 100): 0
Plant response rating, Johnsongrass [9, 19]: 0
Plant response rating, Johnsongrass [9, 20]: 0
Plant response rating, Nutsedge ([10]; Rate 31 g/ha, scale 0 to 100): 0
Plant response rating, Nutsedge [10, 19]: 0
Plant response rating, Nutsedge [10, 20]: 0
Plant response rating, Soybean ([11]; Rate 31 g/ha, scale 0 to 100): 0
Plant response rating, Soybean [11, 19]: 0
Plant response rating, Soybean [11, 20]: 0
Plant response rating, Kochia ([12]; Rate 31 g/ha, scale 0 to 100): 0
Plant response rating, Kochia [12, 19]: 20
Plant response rating, Kochia [12, 20]: 70
Plant response rating, Surinam grass ([13]; Rate 31 g/ha, scale 0 to 100): 0
Plant response rating, Surinam grass [13, 19]: 0
Plant response rating, Surinam grass [13, 20]: 0
Plant response rating, Chickweed ([14]; Rate 31 g/ha, scale 0 to 100): 0
Plant response rating, Chickweed [14, 18]: 0
Plant response rating, Chickweed [14, 19]: 0
Plant response rating, Chickweed [14, 20]: 0
Plant response rating, Cocklebur ([15]; Rate 31 g/ha, scale 0 to 100): 0
Plant response rating, Cocklebur [15, 19]: 0
Plant response rating, Cocklebur [15, 20]: 0
Plant response rating, Cupgrass, Woolly ([16]; Rate 31 g/ha, scale 0 to 100): 0
Plant response rating, Cupgrass, Woolly [16, 19]: 0
Plant response rating, Cupgrass, Woolly [16, 20]: 0
Plant response rating, Ragweed, Common ([17]; Rate 31 g/ha, scale 0 to 100): 0
Plant response rating, Ragweed, Common [17, 19]: 0
Plant response rating, Ragweed, Common [17, 20]: 0
